Measurements published in PubChem BioAssay AID720512 (Broad Institute, 2013).
Calls of active or inactive are those of the source. The rule behind the calls is not given here.

Biological target: Toxin B (TcdB) glycohydrolase, Clostridioides difficile 630
Assay: TcdB glycohydrolase inhibitors, dose response, biochemical, cherry-pick, plate reader (AID 720512)
Conditions: recombinant TcdB glycohydrolase activity

Row | Structure (SMILES) | activity change, negative = inhibition (at 19.5 µM (top of the series)) | further results
1 | Cc1cccc(NC(=O)c2ccc(N3CCOCC3)c([N+](=O)[O-])c2)n1 |  | AC50: > 39 µM (inactive)
2 | CCc1ccccc1NC(=S)N(Cc1ccc(C(=O)O)cc1)Cc1ccc(OC)c(OC)c1 | inactive | 
3 | O=c1[nH]c(CSc2nnc(Cc3ccccc3)o2)nc2ccccc12 | inactive | 
4 | CC(C)(Oc1ccc(Cl)cc1)C(=O)NC1CC1 | inactive | 
5 | S=c1[nH]nc(-c2ccccn2)n1/N=C/c1ccc(Cl)cc1 | inactive | 
6 | CCOC(=O)c1ccc(-n2c(CCC(=O)O)ccc2-c2ccc(F)cc2)cc1 | inactive | 
7 | C[C@H]1CN([C@@H](C)CO)S(=O)(=O)c2ccc(-c3ccncc3)cc2O[C@H]1CN(C)Cc1ccc(Oc2ccccc2)cc1 | inactive | 
8 | OCC[C@H]1C[C@H](O)[C@@H](O)[C@@]2(Cc3ccccc3CO2)O1 | inactive | 
9 | COc1cc(/C=N/NC(=O)c2nnn(-c3nonc3N)c2C(C)C)ccc1O | inactive | 
10 | Cc1ccc(S(=O)(=O)N2CCCC2C(=O)Nc2ccc(O)cc2)cc1 (stereo not given) | inactive | 
11 | O=C(CSc1cccc2cccnc12)N/N=C/c1ccc(F)cc1 | inactive | 
12 | Nc1c(Cl)ncnc1NCCc1ccc(O)cc1 | inactive | 
13 | COc1ccc(Cl)cc1NC(=O)CN(C)C(=O)c1cc2c(s1)CCCC2 | inactive | 
14 | COc1cc(/C=N/NC(=O)c2c(C)nc3ccc(Cl)cn23)cc(OC)c1OC | inactive | 
15 | O=C(NCc1nnc2c(C(F)(F)F)cc(Cl)cn12)c1cccnc1 | inactive | 
16 | CCCNC(=O)C1(C)CCCN(C(=O)c2ccccc2OC(F)(F)F)C1 (stereo not given) | inactive | 
17 | COc1ccc(S(=O)(=O)N2CCC[C@H]2C(=O)N2CCC[C@H]2C(=O)NCc2ccncc2)cc1C | inactive | 
18 | Cc1cnc(C(=O)OCC(=O)Nc2ccc(OCc3ccccc3)cc2)cn1 | inactive | 
19 | Cc1cc(C(=O)N2CCN(Cc3ccccc3)CC2)ccc1[N+](=O)[O-] | inactive | 
20 | O=S(=O)(c1ccccc1)N1CCN=C1SCc1ccccc1 | inactive | 
21 | CC(C)Cc1[nH]c(=O)c(C#N)c2c1CCCC2 | inactive | 
22 | COc1ccc(-c2cnc3c(c2)C(=O)N([C@@H](C)CO)C[C@H](C)[C@H](CN(C)C(=O)C2CCCCC2)O3)cc1 | inactive | 
23 | COCCn1c(NC(=S)NC(=O)C2CC2)cc(=O)[nH]c1=O | inactive | 

Row | Structure (SMILES) | activity change, negative = inhibition (at 19.5 µM (top of the series)) | further results
24 | COc1ccc(C(=O)OCC(=O)Nc2ccc3[nH]c(=O)[nH]c3c2)c(OC)c1OC | inactive | 
25 | Cn1cnnc1SCC(=O)NC1CCCCC1 | inactive | 
26 | Fc1ccc(/C=C\c2nccc3c2[nH]c2ccccc23)cc1 | inactive | 
27 | COc1cc(/C=N/Nc2nc3ccccc3[nH]2)ccc1O | inactive | 
28 | CC[C@H](C)[C@@H]1NC(=O)c2cc([N+](=O)[O-])cc(I)c2NCC[C@@H](C(N)=O)NC(=O)[C@H](CCCN=C(N)N)NC1=O | inactive | 
29 | CCCCNS(=O)(=O)c1ccc(OCC(=O)OC)cc1 | inactive | 
30 | CCOc1ccccc1-n1c(C)nc2cc(C(=O)O)ccc21 | inactive | 
31 | CC1CN=C(Nc2cccc(S(=O)(=O)N(C)C)c2)S1 (stereo not given) | inactive | 
32 | O=C(NCc1cc(C(F)(F)F)cc(C(F)(F)F)c1)C1CC(c2c(Cl)cccc2Cl)=NO1 (stereo not given) | inactive | 
33 | CC(Sc1nccn1C)C(=O)c1c(N)n(C)c(=O)n(C)c1=O (stereo not given) | inactive | 
34 | CCNC(=O)C[C@@H]1CC[C@H]2[C@@H](COc3ccc(NC(C)=O)cc3C(=O)N2C)O1 |  | activity change, negative = inhibition (at 21 µM (top of the series)): inactive
35 | Cc1ccc(NC(=O)C2OCCc3ccccc32)cc1C (stereo not given) | inactive | 
36 | COc1ccc(C=NNC(=O)c2cc(C)oc2C)cc1O | inactive | 
37 | COc1cccc2sc(NNC(=O)C3COc4ccccc4O3)nc12 (stereo not given) | inactive | 
38 | Cc1ccc2c(c1)/C(=C/c1ccccc1C)C(=O)N2 | inactive | 
39 | COC(=O)C1=C(c2ccc(F)cc2OCc2ccccc2)C[C@@H]2CC[C@H]1N2C(=O)N1CCCC1 | inactive | 
40 | S=c1nc(-c2cccc(Cl)c2)[nH][nH]1 | inactive | 
41 | Cc1ccc(/C=C/c2onc(C)c2S(=O)(=O)N2CCC(C(=O)NC(C)(C)C)CC2)cc1 | inactive | 
42 | CNC(=O)C1CCN(S(=O)(=O)c2c(C)noc2/C=C/c2ccc(C)cc2)CC1 | inactive | 
43 | Oc1ccc(/C=N/N2CCN(Cc3ccccc3)CC2)cc1 |  | AC50: > 39 µM (inactive)
44 | CC(=O)Nc1ccc(NC(=O)[C@@H]2CCCN2S(=O)(=O)c2ccc3c(c2)OCCO3)cc1 | inactive | 
45 | NC(=O)c1ccc(NC(=O)CSc2nnc(C3CC3)n2C2CC2)cc1 | inactive | 
